Measurements reported in patent publication US9505749B2, “Quinazolinone compounds and derivatives thereof” (AMGEN INC., priority 2012, dated 2016).
pEC50, pIC50: −log10 of the molar value. Where two headings read alike, the source gives them in different places.

Legend:
[1] = system: total β-catenin in SW480 colorectal cells; assay: Total β-catenin MSD 96-well plate assay for SW480 cells; conditions: Homo sapiens, SW480, read-out: SW480-Total beta-catenin (TBC) IC50 IP
[2] = system: Axin2 accumulation in SW480 cells; assay: Axin2 384 immunofluorescence assay; format: cell-based; conditions: Homo sapiens, read-out: Axin2 384 IF EC50
PARP1 = PARP1 (Homo sapiens (Human), UniProt P09874); assay: PARP1 biochemical assay (Trevigen kit)
Sequence of PARP1 (P09874 whole entry): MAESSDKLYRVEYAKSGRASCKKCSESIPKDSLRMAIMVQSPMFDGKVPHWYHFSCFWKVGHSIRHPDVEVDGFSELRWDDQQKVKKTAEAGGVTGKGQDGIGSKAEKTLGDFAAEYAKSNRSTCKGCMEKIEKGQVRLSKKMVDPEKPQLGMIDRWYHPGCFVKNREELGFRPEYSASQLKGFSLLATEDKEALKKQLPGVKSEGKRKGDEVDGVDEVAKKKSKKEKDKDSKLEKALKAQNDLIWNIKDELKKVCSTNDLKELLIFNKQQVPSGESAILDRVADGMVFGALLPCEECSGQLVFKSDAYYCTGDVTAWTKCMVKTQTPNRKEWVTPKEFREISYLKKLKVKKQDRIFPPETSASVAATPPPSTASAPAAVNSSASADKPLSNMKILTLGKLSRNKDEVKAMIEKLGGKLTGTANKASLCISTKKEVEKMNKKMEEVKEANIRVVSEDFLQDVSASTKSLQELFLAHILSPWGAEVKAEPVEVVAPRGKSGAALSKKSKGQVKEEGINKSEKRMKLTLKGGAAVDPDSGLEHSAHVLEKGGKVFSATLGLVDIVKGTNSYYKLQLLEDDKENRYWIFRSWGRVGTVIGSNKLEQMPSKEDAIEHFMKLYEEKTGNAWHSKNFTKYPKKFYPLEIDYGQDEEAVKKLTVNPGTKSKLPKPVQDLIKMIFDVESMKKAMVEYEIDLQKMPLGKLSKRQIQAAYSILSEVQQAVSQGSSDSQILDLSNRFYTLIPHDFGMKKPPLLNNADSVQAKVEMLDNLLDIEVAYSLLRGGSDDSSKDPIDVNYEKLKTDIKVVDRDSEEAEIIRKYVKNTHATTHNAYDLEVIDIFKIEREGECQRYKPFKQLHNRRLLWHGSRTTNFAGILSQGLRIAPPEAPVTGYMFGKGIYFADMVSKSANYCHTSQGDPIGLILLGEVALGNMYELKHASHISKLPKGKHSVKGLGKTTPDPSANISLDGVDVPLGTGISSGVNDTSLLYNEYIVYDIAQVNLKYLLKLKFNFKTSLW
From the text: PARP1 biochemical assay was purchased as a kit from Trevigen (cat.#4676-096-K) and used per manufacturers recommendations.

PARP2 = PARP2 (Homo sapiens (Human), UniProt Q9UGN5); assay: PARP2 biochemical assay (BPS kit)
Sequence of PARP2 (Q9UGN5 whole entry): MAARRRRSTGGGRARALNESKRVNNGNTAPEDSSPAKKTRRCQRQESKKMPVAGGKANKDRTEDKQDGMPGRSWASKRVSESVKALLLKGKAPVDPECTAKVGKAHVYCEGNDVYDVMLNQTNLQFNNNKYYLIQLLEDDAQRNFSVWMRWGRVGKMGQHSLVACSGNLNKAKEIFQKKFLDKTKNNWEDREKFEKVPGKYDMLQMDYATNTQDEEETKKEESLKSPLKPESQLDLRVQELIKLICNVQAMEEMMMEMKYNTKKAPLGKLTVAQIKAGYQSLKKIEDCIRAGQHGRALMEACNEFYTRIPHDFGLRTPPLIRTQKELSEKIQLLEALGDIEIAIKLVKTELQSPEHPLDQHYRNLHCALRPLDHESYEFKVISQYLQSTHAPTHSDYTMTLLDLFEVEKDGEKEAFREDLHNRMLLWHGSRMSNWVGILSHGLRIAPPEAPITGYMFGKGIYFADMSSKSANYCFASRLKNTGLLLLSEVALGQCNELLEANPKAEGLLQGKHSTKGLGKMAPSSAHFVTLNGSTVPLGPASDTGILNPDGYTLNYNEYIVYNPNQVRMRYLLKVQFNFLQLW

[3] = molecular target: 6×HIS-tankyrase 2 (946-1162) (Homo sapiens (Human), UniProt Q9H2K2); assay: Tankyrase 2 biochemical assay (AlphaLisa, PARsylation); conditions: 250 nM NAD; read-out: TNKS2 IC50
Sequence of 6×HIS-tankyrase 2 (946-1162) (Q9H2K2 946-1162): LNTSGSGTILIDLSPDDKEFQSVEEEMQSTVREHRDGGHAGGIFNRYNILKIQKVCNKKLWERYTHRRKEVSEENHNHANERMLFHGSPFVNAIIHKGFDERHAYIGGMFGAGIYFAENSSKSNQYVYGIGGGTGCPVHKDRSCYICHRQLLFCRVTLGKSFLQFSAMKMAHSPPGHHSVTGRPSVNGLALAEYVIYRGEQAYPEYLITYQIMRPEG

SMILES | pIC50 [1] | pEC50 ([2]; SW480 cells, 24 hours) | pIC50 (PARP1) | pIC50 (PARP2) | pIC50 [3] | pEC50 ([2]; SW480, 24 h)
O=C(CCCc1nc2ccccc2c(=O)[nH]1)N1CCC(n2nnc3ccccc32)CC1 [Example 75, 2-(4-(4-(1H-benzo[d][1,2,3]triazol-1-yl)piperidin-1-yl)-4-oxobutyl)quinazolin-4(3H)-one trifluoroacetic acid] | 6.21 | 6.42 |  |  |  | 
O=C(CCc1nc2ccccc2c(=O)[nH]1)N[C@H]1CC[C@H](c2nnc(C3CCCCC3)o2)CC1 [Example 138, N-((1r,4r)-4-(5-cyclohexyl-1,3,4-oxadiazol-2-yl)cyclohexyl)-3-(4-oxo-3,4-dihydroquinazolin-2-yl)propanamide] |  | < 4.60 | 5.26 | 5.58 |  | 
O=C(CCc1cc(=O)n2ccccc2n1)N[C@H]1CC[C@H](c2nnc(-c3ccccc3)o2)CC1 [Example 38, 3-(4-oxo-4H-pyrido[1,2-a]pyrimidin-2-yl)-N-((1r,4r)-4-(5-phenyl-1,3,4-oxadiazol-2-yl)cyclohexyl) propanamide] | 5.84 | 5.09 |  |  |  | 
O=C(CCCc1nc2ccccc2c(=O)[nH]1)N[C@H]1CC[C@H](Oc2ccccc2)C1 [Example 65, 4-(4-oxo-3,4-dihydroquinazolin-2-yl)-N-((1S,3S)-3-phenoxycyclopentyl)butanamide+4-(4-oxo-3,4-dihydroquinazolin-2-yl)-N-((1R,3R)-3-phenoxycyclopentyl)butanamide] | < 5.00 |  |  |  |  | 
O=C(CSc1nc2ccccc2c(=O)[nH]1)N[C@H]1CC[C@H](Oc2ccc(F)cc2)CC1 [Example 99, N-((1r,4r)-4-(4-fluorophenoxy)cyclohexyl)-2-((4-oxo-3,4-dihydroquinazolin-2-yl)thio) acetamide] | 5.62 | 5.67 |  |  |  | 
O=C(CCc1nc2ccccc2c(=O)[nH]1)N[C@H]1CC[C@H](c2nnc(-c3ncccn3)o2)CC1 [Example 133, 3-(4-oxo-3,4-dihydroquinazolin-2-yl)-N-((1r,4r)-4-(5-(pyrimidin-2-yl)-1,3,4-oxadiazol-2-yl)cyclohexyl)propanamide] | < 5.00 |  | 5.34 | 5.73 |  | 
O=C(CCc1nc2ccccc2c(=O)[nH]1)N[C@H]1CC[C@H](c2nnc(C3CCOCC3)o2)CC1 [Example 135, 3-(4-oxo-3,4-dihydroquinazolin-2-yl)-N-((1r,4r)-4-(5-(tetrahydro-2H-pyran-4-yl)-1,3,4-oxadiazol-2-yl)cyclohexyl)propanamide] | < 5.00 |  |  |  |  | 
O=C1Nc2cc(Cl)ccc2C1C1CCN(C(=O)CCCc2nc3ccccc3c(=O)[nH]2)CC1 (racemic) [Example 76, 2-(4-(4-((3S)-6-chloro-2-oxo-2,3-dihydro-1H-indol-3-yl)-1-piperidinyl)-4-oxobutyl)-4(3H)-quinazolinone trifluoroacetic acid and 2-(4-(4-((3R)-6-chloro-2-oxo-2,3-dihydro-1H-indol-3-yl)-1-piperidinyl)-4-oxobutyl)-4(3H)-quinazolinone trifluoroacetic acid] | 5.52 |  |  |  |  | 5.53
O=C(CCCc1nc2ccccc2c(=O)[nH]1)N1CCC(c2noc3ccc(F)cc23)CC1 [Example 72, 2-(4-(4-(5-fluorobenzo[d]isoxazol-3-yl)piperidin-1-yl)-4-oxobutyl)quinazolin-4(3H)-one trifluoroacetic acid] | 5.95 | 6.20 |  |  |  | 
O=C(CCc1nc2ncccc2c(=O)[nH]1)N[C@H]1CC[C@H](c2nnc(-c3ccccc3)o2)CC1 [Example 81, 3-(4-oxo-3,4-dihydropyrido[2,3-d]pyrimidin-2-yl)-N-((1r,4r)-4-(5-phenyl-1,3,4-oxadiazol-2-yl)cyclohexyl) propanamide] | 5.71 | 5.06 |  | 5.07 |  | 
O=C(CCc1nc2c(c(=O)[nH]1)CCCN2)N[C@H]1CC[C@H](c2nnc(-c3ccccc3)o2)CC1 [Example 88, 3-(4-oxo-3,4,5,6,7,8-hexahydropyrido[2,3-d]pyrimidin-2-yl)-N-((1r,4r)-4-(5-phenyl-1,3,4-oxadiazol-2-yl)cyclohexyl)propanamide] | 5.99 |  | 5.46 | 6.28 |  | 
O=C(CCSc1nccc(=O)[nH]1)N[C@H]1CC[C@H](c2nnc(-c3ccccc3)o2)CC1 [Example 123, 3-((6-oxo-1,6-dihydropyrimidin-2-yl)thio)-N-((1r,4r)-4-(5-phenyl-1,3,4-oxadiazol-2-yl)cyclohexyl)propanamide] | 5.67 | 5.48 | < 4.07 | < 3.77 |  | 
O=C(CCCc1nc2ccccc2c(=O)[nH]1)N[C@H]1CC[C@H](n2c(=O)[nH]c3ccccc32)CC1 [Example 73, N-((1r,4r)-4-(2-oxo-2,3-dihydro-1H-benzo[d]imidazol-1-yl)cyclohexyl)-4-(4-oxo-3,4-dihydroquinazolin-2-yl)butanamide trifluoroacetic acid] | 7.68 |  |  |  |  | 7.53
O=C(CCc1nc2ccccc2c(=O)[nH]1)N[C@H]1CC[C@H](c2nnc(-c3ccccc3F)o2)CC1 [Example 126, N-((1r,4r)-4-(5-(2-fluorophenyl)-1,3,4-oxadiazol-2-yl)cyclohexyl)-3-(4-oxo-3,4-dihydroquinazolin-2-yl)propanamide] |  |  | 5.29 |  |  | 
O=C(CCCc1nc2ccccc2c(=O)[nH]1)N1CCN(c2noc3ccccc23)CC1 [Example 71, 2-(4-(4-(benzo[d]isoxazol-3-yl)piperazin-1-yl)-4-oxobutyl)quinazolin-4(3H)-one trifluoroacetic acid] | 5.46 | 5.38 |  |  |  | 

More lines, main results first:

pIC50 [1] | pEC50 ([2]; SW480 cells, 24 hours) | pIC50 (PARP1) | pIC50 (PARP2) | pIC50 [3] | SMILES | pEC50 ([2]; SW480, 24 h)
8.72 | 9.18 |  |  |  | O=C(CCSc1nc2ccccc2c(=O)[nH]1)N[C@H]1CC[C@H](c2nnc(-c3ccncc3)o2)CC1 [Example 124, 3-((4-oxo-3,4-dihydroquinazolin-2-yl)thio)-N-(trans-4-(5-(pyridin-4-yl)-1,3,4-oxadiazol-2-yl)cyclohexyl)propanamide] | 
6.31 |  | 5.61 | 5.58 |  | O=C(CCc1nc2ccccc2c(=O)[nH]1)N[C@H]1CC[C@H](c2nnc(-c3ccncc3)o2)CC1 [Example 132, 3-(4-oxo-3,4-dihydroquinazolin-2-yl)-N-((1r,4r)-4-(5-(pyridin-4-yl)-1,3,4-oxadiazol-2-yl)cyclohexyl)propanamide] | 
7.78 | 7.64 |  | 5.31 |  | O=C(CCSc1nc2ccccc2c(=O)[nH]1)N[C@H]1CC[C@H](Oc2ccc(F)cc2)CC1 [Example 100, N-((1r,4r)-4-(4-fluorophenoxy)cyclohexyl)-3-((4-oxo-3,4-dihydroquinazolin-2-yl)thio) propanamide] | 
6.93 | 6.64 |  | 6.17 |  | O=C(CCc1nc2ccccc2c(=O)[nH]1)N[C@H]1CC[C@H](c2nnc(-c3ccc(Cl)cc3)o2)CC1 [Example 141, N-((1r,4r)-4-(5-(4-chlorophenyl)-1,3,4-oxadiazol-2-yl)cyclohexyl)-3-(4-oxo-3,4-dihydroquinazolin-2-yl)propanamide] | 
7.10 | 6.19 | 5.57 | 6.01 |  | O=C(CCc1nc2ccccc2c(=O)[nH]1)N[C@H]1CC[C@H](c2nnc(-c3ccccc3)o2)CC1 [Example 2, 3-(4-oxo-3,4-dihydro-2-quinazolinyl)-N-(trans-4-(5-phenyl-1,3,4-oxadiazol-2-yl)cyclohexyl)propanamide] | 
7.37 | 6.65 |  |  |  | O=C(CCc1nc2ccccc2c(=O)[nH]1)N[C@H]1CC[C@H](n2c(=O)oc3ccccc32)CC1 [Example 80] | 
7.70 | 7.44 | < 4.07 |  |  | O=C(CCSc1nc2ccccc2c(=O)[nH]1)N[C@H]1CC[C@H](Oc2ccc(Cl)cc2)CC1 [Example 105, N-((1r,4r)-4-(4-chlorophenoxy)cyclohexyl)-3-((4-oxo-3,4-dihydroquinazolin-2-yl)thio) propanamide] | 
7.34 | 7.09 |  |  |  | COc1ccc2c(c1)[nH]c(=O)n2C1CCN(C(=O)CCCc2nc3ccccc3c(=O)[nH]2)CC1 [Example 8, 2-(4-(4-(5-methoxy-2-oxo-2,3-dihydro-1H-benzimidazol-1-yl)-1-piperidinyl)-4-oxobutyl)-4(3H)-quinazolinone] | 
7.78 | 7.13 |  |  |  | O=C(CCCc1nc2ccccc2c(=O)[nH]1)N[C@H]1CC[C@H](c2nnc(-c3ccccc3)o2)CC1 [Example 10, 4-(4-oxo-3,4-dihydro-2-quinazolinyl)-N-(trans-4-(5-phenyl-1,3,4-oxadiazol-2-yl)cyclohexyl)butanamide] | 
7.04 | 6.27 | 4.54 | 5.80 |  | O=C(CSc1nc2ccccc2c(=O)[nH]1)N[C@H]1CC[C@H](c2nnc(-c3ccccc3)o2)CC1 [Example 96, 2-((4-oxo-3,4-dihydroquinazolin-2-yl)thio)-N-((1r,4r)-4-(5-phenyl-1,3,4-oxadiazol-2-yl)cyclohexyl) acetamide] | 
7.32 | 7.29 | < 4.07 | < 3.77 |  | N#Cc1cccc(O[C@H]2CC[C@H](NC(=O)CCSc3nc4ccccc4c(=O)[nH]3)CC2)c1 [Example 109] | 
7.80 | 7.73 |  | 5.75 | 9.52 | O=C(CCCc1nc2ccccc2c(=O)[nH]1)N[C@H]1CC[C@H](c2nnc(-c3ccc(F)cc3)o2)CC1 [Example 28, N-(trans-4-(5-(4-fluorophenyl)-1,3,4-oxadiazol-2-yl)cyclohexyl)-4-(4-oxo-3,4-dihydro-2-quinazolinyl)butanamide] | 
6.60 |  |  | 5.68 | 7.85 | N#Cc1ccc(-c2nnc([C@H]3CC[C@H](NC(=O)CCc4nc5ccccc5c(=O)[nH]4)CC3)o2)cc1 [Example 134, N-((1r,4r)-4-(5-(4-cyanophenyl)-1,3,4-oxadiazol-2-yl)cyclohexyl)-3-(4-oxo-3,4-dihydroquinazolin-2-yl)propanamide] | 
